Results: patent publication US7880007B2, “Bicyclic substituted phenyl piperidine modulators of muscarinic receptors” (Vertex Pharmaceuticals Incorporated, priority 2004, dated 2011)

Key:
Assay type in all cases: cell-based
[1] = target: T1, M1 muscarinic receptor (Homo sapiens, UniProt P11229); assay: Functional mobilization of intracellular calcium (FLIPR), M1-CHO cells; settings: for M1 Activity: M1-CHO cells, calcium mobilization (FLIPR)
T1 construct: expressed in transfected cells; host or cells: CHO (M1-CHO)
T1 sequence (P11229 1-460): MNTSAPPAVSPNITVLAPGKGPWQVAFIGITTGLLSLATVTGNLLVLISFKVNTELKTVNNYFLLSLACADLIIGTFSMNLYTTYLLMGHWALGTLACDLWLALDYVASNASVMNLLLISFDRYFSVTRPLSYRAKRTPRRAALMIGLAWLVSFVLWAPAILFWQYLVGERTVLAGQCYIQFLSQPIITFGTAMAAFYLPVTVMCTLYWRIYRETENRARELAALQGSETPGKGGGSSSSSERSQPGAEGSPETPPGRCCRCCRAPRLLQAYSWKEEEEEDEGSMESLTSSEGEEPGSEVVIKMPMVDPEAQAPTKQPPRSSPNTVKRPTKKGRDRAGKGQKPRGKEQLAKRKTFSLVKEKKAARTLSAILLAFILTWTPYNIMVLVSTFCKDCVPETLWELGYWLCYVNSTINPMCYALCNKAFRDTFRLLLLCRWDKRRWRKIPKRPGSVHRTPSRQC
Procedure, shortened: (§1)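 Calcium mobilisation read by FLIPR over 60 s (ex 488/em 540 nm) in recombinant muscarinic CHO lines loaded with calcium dye plus 1 mM probenecid. Compounds tested as agonists alone, or as inhibitors against EC80 carbachol after 15 min pre-incubation or co-addition; 0.5% DMSO; efficacy scaled to carbachol maximal response.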

[2] = target: T2, M2 muscarinic receptor (Homo sapiens, UniProt P08172); assay: Functional mobilization of intracellular calcium (FLIPR), M2-CHO cells; settings: for M2 Activity: M2-CHO cells, calcium mobilization (FLIPR)
T2 construct: expressed in transfected cells; host or cells: CHO (M2-CHO)
T2 sequence (P08172 1-466): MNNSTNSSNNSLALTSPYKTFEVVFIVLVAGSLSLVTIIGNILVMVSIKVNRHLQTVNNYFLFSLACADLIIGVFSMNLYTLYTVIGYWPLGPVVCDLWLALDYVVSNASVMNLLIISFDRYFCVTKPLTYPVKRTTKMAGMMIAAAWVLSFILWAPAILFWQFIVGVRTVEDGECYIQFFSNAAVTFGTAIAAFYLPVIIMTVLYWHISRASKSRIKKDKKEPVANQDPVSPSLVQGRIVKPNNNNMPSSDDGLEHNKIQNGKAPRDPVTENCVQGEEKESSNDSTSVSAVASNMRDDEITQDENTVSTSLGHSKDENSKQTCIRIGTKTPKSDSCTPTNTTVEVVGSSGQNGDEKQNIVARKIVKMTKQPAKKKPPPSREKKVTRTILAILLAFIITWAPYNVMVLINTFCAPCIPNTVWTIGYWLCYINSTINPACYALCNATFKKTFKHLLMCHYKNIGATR
Procedure, shortened: as §1

[3] = target: T3, M3 muscarinic receptor (Homo sapiens, UniProt P20309); assay: Functional mobilization of intracellular calcium (FLIPR), M3-CHO cells; settings: for M3 Activity: M3-CHO cells, calcium mobilization (FLIPR)
T3 construct: expressed in transfected cells; host or cells: CHO (M3-CHO)
Procedure, shortened: as §1

[4] = target: T4, M4 muscarinic receptor (Homo sapiens, UniProt P08173); assay: Functional mobilization of intracellular calcium (FLIPR), M4-CHO cells; settings: for M4 Activity: M4-CHO cells, calcium mobilization (FLIPR)
T4 construct: expressed in transfected cells; host or cells: CHO (M4-CHO)
T4 sequence (P08173 1-479): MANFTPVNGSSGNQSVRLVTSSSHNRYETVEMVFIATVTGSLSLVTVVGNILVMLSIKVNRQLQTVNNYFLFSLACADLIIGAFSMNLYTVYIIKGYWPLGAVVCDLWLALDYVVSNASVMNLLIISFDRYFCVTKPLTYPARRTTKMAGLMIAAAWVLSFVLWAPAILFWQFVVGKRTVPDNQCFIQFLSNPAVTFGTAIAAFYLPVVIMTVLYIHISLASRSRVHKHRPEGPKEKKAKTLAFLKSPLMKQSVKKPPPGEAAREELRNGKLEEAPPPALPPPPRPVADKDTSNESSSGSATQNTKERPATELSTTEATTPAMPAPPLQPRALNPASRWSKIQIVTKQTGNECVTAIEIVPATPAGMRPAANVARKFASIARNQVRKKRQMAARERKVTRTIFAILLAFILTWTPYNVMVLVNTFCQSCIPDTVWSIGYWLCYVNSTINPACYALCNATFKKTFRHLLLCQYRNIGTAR
Procedure, shortened: as §1

[5] = 100% efficacy = maximum response obtained with the Carbachol control

T3 sequence (P20309 whole entry): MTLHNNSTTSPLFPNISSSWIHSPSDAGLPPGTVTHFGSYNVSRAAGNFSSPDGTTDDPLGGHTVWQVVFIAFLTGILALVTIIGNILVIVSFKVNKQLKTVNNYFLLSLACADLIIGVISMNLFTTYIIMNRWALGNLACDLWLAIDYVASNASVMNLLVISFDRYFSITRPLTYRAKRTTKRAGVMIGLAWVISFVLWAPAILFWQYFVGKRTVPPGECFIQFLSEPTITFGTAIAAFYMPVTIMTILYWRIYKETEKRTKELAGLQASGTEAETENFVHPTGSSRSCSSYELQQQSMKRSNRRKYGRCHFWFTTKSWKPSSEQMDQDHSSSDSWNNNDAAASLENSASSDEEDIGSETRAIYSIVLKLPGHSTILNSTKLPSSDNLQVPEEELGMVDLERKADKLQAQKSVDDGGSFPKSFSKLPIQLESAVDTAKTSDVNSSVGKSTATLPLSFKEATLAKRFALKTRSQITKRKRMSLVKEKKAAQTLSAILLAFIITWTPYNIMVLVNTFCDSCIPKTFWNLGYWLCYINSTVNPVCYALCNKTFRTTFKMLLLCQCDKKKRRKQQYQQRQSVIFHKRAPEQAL

Structure (SMILES) | Emax [1, 5] | M1 Activity [1] | Emax [2, 5] | M2 Activity [2] | Emax [3, 5] | M3 Activity [3] | Emax [4, 5] | M4 Activity [4] | M1 Efficacy [1, 5] | M2 Efficacy [2, 5] | M3 Efficacy [3, 5] | M4 Efficacy [4, 5]
COc1ccc(-c2ccc(C(F)(F)F)cc2)cc1C1CCN([C@H]2C[C@H]3CC[C@H]2C3)CC1 [Compound 120] | 25 to 100% | + (activity was measured to be greater than 5.0 μM) | < 25% | + (activity was measured to be greater than 5.0 μM) | < 25% | + (activity was measured to be greater than 5.0 μM) | 25 to 100% | + (activity was measured to be greater than 5.0 μM) |  |  |  | 
COc1ccc(Cl)cc1C1CCN(CC2CCOCC2)CC1 [Compound 121] | 25 to 100% | ++ (activity was measured to be from 1.0 μM to 5.0 μM) | < 25% | + (activity was measured to be greater than 5.0 μM) | < 25% | + (activity was measured to be greater than 5.0 μM) | 25 to 100% | +++ (activity was measured to be less than 1.0 μM) |  |  |  | 
CCOC(=O)N1CCC(CN2CCC(F)(c3cc(Cl)ccc3OC)CC2)CC1 [Compound 122] | 25 to 100% | ++ (activity was measured to be from 1.0 μM to 5.0 μM) | 25 to 100% | ++ (activity was measured to be from 1.0 μM to 5.0 μM) | < 25% | + (activity was measured to be greater than 5.0 μM) | 25 to 100% | +++ (activity was measured to be less than 1.0 μM) |  |  |  | 
COc1ccc(Cl)cc1C1(OC)CCN(CC2CCOCC2)CC1 [Compound 123] | 25 to 100% | ++ (activity was measured to be from 1.0 μM to 5.0 μM) | < 25% | + (activity was measured to be greater than 5.0 μM) | < 25% | + (activity was measured to be greater than 5.0 μM) | < 25% | + (activity was measured to be greater than 5.0 μM) |  |  |  | 
COc1ccc(-c2ccncc2)cc1C1CCN([C@@H]2C[C@@H]3CC[C@H]2C3)CC1 [Compound 124, 4-(3-(1-((1S,2R,4R)-bicyclo[2.2.1]heptan-2-yl)piperidin-4-yl)-4-methoxyphenyl) pyridine] | < 25% | + (activity was measured to be greater than 5.0 μM) | < 25% | + (activity was measured to be greater than 5.0 μM) | < 25% | + (activity was measured to be greater than 5.0 μM) | < 25% | + (activity was measured to be greater than 5.0 μM) |  |  |  | 
COc1ccc(-c2ccc(OC(F)(F)F)cc2)cc1C1CCN([C@H]2C[C@H]3CC[C@H]2C3)CC1 [Compound 126] | 25 to 100% | + (activity was measured to be greater than 5.0 μM) | < 25% | + (activity was measured to be greater than 5.0 μM) | < 25% | + (activity was measured to be greater than 5.0 μM) | 25 to 100% | + (activity was measured to be greater than 5.0 μM) |  |  |  | 
O=C(COc1ccccc1C1CCN([C@H]2C[C@H]3CC[C@H]2C3)CC1)c1ccc(N2CCCC2)cc1 [Compound 127] | 25 to 100% | ++ (activity was measured to be from 1.0 μM to 5.0 μM) | 25 to 100% | ++ (activity was measured to be from 1.0 μM to 5.0 μM) | < 25% | + (activity was measured to be greater than 5.0 μM) | 25 to 100% | +++ (activity was measured to be less than 1.0 μM) |  |  |  | 
COc1ccc(-c2ccc(C(=O)N3CCCCC3)cc2)cc1C1CCN([C@H]2C[C@H]3CC[C@H]2C3)CC1 [Compound 128] | < 25% | + (activity was measured to be greater than 5.0 μM) | < 25% | + (activity was measured to be greater than 5.0 μM) | < 25% | + (activity was measured to be greater than 5.0 μM) | < 25% | ++ (activity was measured to be from 1.0 μM to 5.0 μM) |  |  |  | 
COc1ccc(-c2ccc(S(=O)(=O)N3CCCC3)cc2)cc1C1CCN(C2CC3CCC(C3)C2)CC1 (stereo not shown) [Compound 129] | < 25% | + (activity was measured to be greater than 5.0 μM) | < 25% | + (activity was measured to be greater than 5.0 μM) | < 25% | + (activity was measured to be greater than 5.0 μM) | 25 to 100% | + (activity was measured to be greater than 5.0 μM) |  |  |  | 
COc1ccc(Cl)cc1C1CCN(C2CCC(=NOC(C)(C)C)CC2)CC1 (stereo not shown) [Compound 130] |  | ++ (activity was measured to be from 1.0 μM to 5.0 μM) |  | + (activity was measured to be greater than 5.0 μM) |  | + (activity was measured to be greater than 5.0 μM) |  | +++ (activity was measured to be less than 1.0 μM) | ++ (efficacy was calculated to be from 100% to 25%) | + (efficacy was calculated to be less than 25%) | + (efficacy was calculated to be less than 25%) | ++ (efficacy was calculated to be from 100% to 25%)
COc1ccccc1C1CC2CCC(C1)N2C1CCCCC1 (stereo not shown) [Compound 132] | < 25% | ++ (activity was measured to be from 1.0 μM to 5.0 μM) | < 25% | + (activity was measured to be greater than 5.0 μM) | < 25% | + (activity was measured to be greater than 5.0 μM) | < 25% | ++ (activity was measured to be from 1.0 μM to 5.0 μM) |  |  |  | 
